How the values were obtained:
Assay type in all cases: in vivo
[1] = test system: barnyardgrass (Echinochloa crus-galli); test: Test A preemergence, barnyardgrass; conditions: 0 to 100 scale, 0 is no effect, 100 is complete control
In short: (§1)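 Ratings reflect visual comparison with untreated controls roughly 10 d after greenhouse application, 0 meaning no effect and 100 complete control. Treatment was by directed soil spray at planting or by spray onto one- to two-leaf plants in loam/sand pots.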

kochia (Kochia scoparia) [2] = test: Test A preemergence, kochia; conditions: 0 to 100 scale, 0 is no effect, 100 is complete control
In short: as §1

[3] = test system: ragweed (common ragweed, Ambrosia elatior); test: Test A preemergence, ragweed; conditions: 0 to 100 scale, 0 is no effect, 100 is complete control
In short: as §1

[4] = test system: ryegrass, Italian (Lolium multiflorum); test: Test A preemergence, Italian ryegrass; conditions: 0 to 100 scale, 0 is no effect, 100 is complete control
In short: as §1

[5] = test system: foxtail, giant (Setaria faberii); test: Test A preemergence, giant foxtail; conditions: 0 to 100 scale, 0 is no effect, 100 is complete control
In short: as §1

[6] = test system: pigweed (Amaranthus retroflexus); test: Test A preemergence, pigweed; conditions: 0 to 100 scale, 0 is no effect, 100 is complete control
In short: as §1

[7] = test system: barnyardgrass (Echinochloa crus-galli); test: Test A postemergence, barnyardgrass; conditions: 0 to 100 scale; for Plant response rating, Barnyardgrass: 0 no effect, 100 complete control
In short: as §1

kochia (Kochia scoparia) [8] = test: Test A postemergence, kochia; conditions: 0 to 100 scale; for Plant response rating, Kochia: 0 no effect, 100 complete control
In short: as §1

[9] = test system: ragweed (common ragweed, Ambrosia elatior); test: Test A postemergence, ragweed; conditions: 0 to 100 scale; for Plant response rating, Ragweed: 0 no effect, 100 complete control
In short: as §1

[10] = test system: ryegrass, Italian (Lolium multiflorum); test: Test A postemergence, Italian ryegrass; conditions: 0 to 100 scale; for Plant response rating, Ryegrass, Italian: 0 no effect, 100 complete control
In short: as §1

[11] = test system: foxtail, giant (Setaria faberii); test: Test A postemergence, giant foxtail; conditions: 0 to 100 scale; for Plant response rating, Foxtail, Giant: 0 no effect, 100 complete control
In short: as §1

[12] = test system: pigweed (Amaranthus retroflexus); test: Test A postemergence, pigweed; conditions: 0 to 100 scale; for Plant response rating, Pigweed: 0 no effect, 100 complete control
In short: as §1

[13] = test system: wheat (Triticum aestivum); test: Test A postemergence, wheat; conditions: 0 to 100 scale; for Plant response rating, Wheat: 0 no effect, 100 complete control
In short: as §1

corn (Zea mays) = test: Test A postemergence, corn; conditions: 0 to 100 scale; for Plant response rating, Corn: 0 no effect, 100 complete control
In short: as §1

[14] = test system: blackgrass (Alopecurus myosuroides); test: Test A postemergence, blackgrass; conditions: 0 to 100 scale; for Plant response rating, Blackgrass: 0 no effect, 100 complete control
In short: as §1

[15] = test system: galium (catchweed bedstraw, Galium aparine); test: Test A postemergence, galium; conditions: 0 to 100 scale; for Plant response rating, Galium: 0 no effect, 100 complete control
In short: as §1

rice (Oryza sativa) = test: Test B flooded paddy test, rice; conditions: Flood, 250 g ai/ha, applied to paddy water, 2-leaf stage, visual evaluation after 13 to 15 d
In short: (§2)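 Visual injury scores run from 0 (no effect) to 100 (complete control), assigned by comparison with controls 13 to 15 d after treatment. Treatment went into floodwater standing 3 cm over the soil of pots holding 2-leaf plants.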

[16] = test system: sedge, umbrella (small-flower umbrella sedge, Cyperus difformis); test: Test B flooded paddy test, umbrella sedge; conditions: Flood, 250 g ai/ha, applied to paddy water, 2-leaf stage, visual evaluation after 13 to 15 d
In short: as §2

[17] = test system: ducksalad (Heteranthera limosa); test: Test B flooded paddy test, ducksalad; conditions: Flood, 250 g ai/ha, applied to paddy water, 2-leaf stage, visual evaluation after 13 to 15 d
In short: as §2

[18] = test system: barnyardgrass (Echinochloa crus-galli); test: Test B flooded paddy test, barnyardgrass; conditions: Flood, 250 g ai/ha, applied to paddy water, 2-leaf stage, visual evaluation after 13 to 15 d
In short: as §2

[19] = 500 g ai/ha, 0 is no effect, 100 is complete control

| Compound | Barnyardgrass plant response rating ([1]; 125 g ai/ha) | Barnyardgrass plant response rating ([1]; 500 g ai/ha) | Kochia plant response rating (kochia (Kochia scoparia) [2]; 125 g ai/ha) | Kochia plant response rating (kochia (Kochia scoparia) [2]; 500 g ai/ha) | Ragweed plant response rating ([3]; 125 g ai/ha) | Ragweed plant response rating ([3]; 500 g ai/ha) | Ryegrass, Italian plant response rating ([4]; 125 g ai/ha) | Ryegrass, Italian plant response rating ([4]; 500 g ai/ha) | Foxtail, Giant plant response rating ([5]; 125 g ai/ha) | Foxtail, Giant plant response rating ([5]; 500 g ai/ha) | Pigweed plant response rating ([6]; 125 g ai/ha) | Pigweed plant response rating ([6]; 500 g ai/ha) | Plant response rating, Barnyardgrass ([7]; 125 g ai/ha) | Plant response rating, Kochia (kochia (Kochia scoparia) [8]; 125 g ai/ha) | Plant response rating, Ragweed ([9]; 125 g ai/ha) | Plant response rating, Ryegrass, Italian ([10]; 125 g ai/ha) | Plant response rating, Foxtail, Giant ([11]; 125 g ai/ha) | Plant response rating, Pigweed ([12]; 125 g ai/ha) | Plant response rating, Wheat ([13]; 125 g ai/ha) | Plant response rating, Corn (corn (Zea mays); 125 g ai/ha) | other results |
| --- | --- | --- | --- | --- | --- | --- | --- | --- | --- | --- | --- | --- | --- | --- | --- | --- | --- | --- | --- | --- | --- |
| C[C@@H](Nc1ncc(C(F)(F)F)c(N)n1)c1csc2ccccc12 [Compound 41] | 40 | 90 | 70 | 90 | 90 | 100 | 20 | 80 | 30 | 90 | 80 | 100 | 0 | 70 | 60 | 20 | 50 | 90 | 0 | 10 | Barnyardgrass plant response rating [7, 19]: 50; Kochia plant response rating (kochia (Kochia scoparia) [8]; [19]): 90; Ragweed plant response rating [9, 19]: 90; Ryegrass, Italian plant response rating [10, 19]: 70; Foxtail, Giant plant response rating [11, 19]: 100; Pigweed plant response rating [12, 19]: 100; Wheat plant response rating [13, 19]: 0; Corn plant response rating (corn (Zea mays); [19]): 20; Plant response rating, Blackgrass ([14]; 125 g ai/ha): 0; Blackgrass plant response rating [14, 19]: 0; Plant response rating, Galium ([15]; 125 g ai/ha): 50; Galium plant response rating [15, 19]: 70; Plant response rating, Rice (0 to 100 scale, 0 is no effect, 100 is complete control) (rice (Oryza sativa)): 0; Plant response rating, Sedge, Umbrella (0 to 100 scale, 0 is no effect, 100 is complete control) [16]: 65; Plant response rating, Ducksalad (0 to 100 scale, 0 is no effect, 100 is complete control) [17]: 35; Plant response rating, Barnyardgrass (0 to 100 scale, 0 is no effect, 100 is complete control) [18]: 15 |
| Cc1ccc2c(C(C)Nc3ncc(C(F)(F)F)c(N)n3)coc2c1 (stereo not drawn) [Compound 85] | 70 | 100 | 30 | 90 | 90 | 100 | 40 | 50 | 70 | 100 | 100 | 100 | 50 | 70 | 50 | 50 | 40 | 90 | 30 | 10 | Plant response rating, Barnyardgrass ([7]; 500 g ai/ha): 80; Plant response rating, Kochia (kochia (Kochia scoparia) [8]; 500 g ai/ha): 90; Plant response rating, Ragweed ([9]; 500 g ai/ha): 90; Plant response rating, Ryegrass, Italian ([10]; 500 g ai/ha): 60; Plant response rating, Foxtail, Giant ([11]; 500 g ai/ha): 90; Plant response rating, Pigweed ([12]; 500 g ai/ha): 10; Plant response rating, Wheat ([13]; 500 g ai/ha): 30; Plant response rating, Corn (corn (Zea mays); 500 g ai/ha): 40; Plant response rating, Blackgrass ([14]; 125 g ai/ha): 40; Plant response rating, Blackgrass ([14]; 500 g ai/ha): 50; Plant response rating, Galium ([15]; 125 g ai/ha): 80; Plant response rating, Galium ([15]; 500 g ai/ha): 90; Plant response rating, Rice (0 to 100 scale, 0 is no effect, 100 is complete control) (rice (Oryza sativa)): 0; Plant response rating, Sedge, Umbrella (0 to 100 scale, 0 is no effect, 100 is complete control) [16]: 85; Plant response rating, Ducksalad (0 to 100 scale, 0 is no effect, 100 is complete control) [17]: 30; Plant response rating, Barnyardgrass (0 to 100 scale, 0 is no effect, 100 is complete control) [18]: 0 |
| CC(Nc1nc(N)c(C(F)(F)F)c(C(F)(F)F)n1)c1coc2ccccc12 (stereo not drawn) [Compound 87] | 0 | 0 | 0 | 0 | 0 | 0 | 0 | 0 | 0 | 0 | 0 | 10 | 0 | 0 | 0 | 0 | 0 | 0 | 0 | 0 | Plant response rating, Barnyardgrass ([7]; 500 g ai/ha): 0; Plant response rating, Kochia (kochia (Kochia scoparia) [8]; 500 g ai/ha): 30; Plant response rating, Ragweed ([9]; 500 g ai/ha): 20; Plant response rating, Ryegrass, Italian ([10]; 500 g ai/ha): 0; Plant response rating, Foxtail, Giant ([11]; 500 g ai/ha): 0; Plant response rating, Pigweed ([12]; 500 g ai/ha): 60; Plant response rating, Wheat ([13]; 500 g ai/ha): 0; Plant response rating, Corn (corn (Zea mays); 500 g ai/ha): 0; Plant response rating, Blackgrass ([14]; 125 g ai/ha): 0; Plant response rating, Blackgrass ([14]; 500 g ai/ha): 0; Plant response rating, Galium ([15]; 125 g ai/ha): 0; Plant response rating, Galium ([15]; 500 g ai/ha): 0; Plant response rating, Rice (0 to 100 scale, 0 is no effect, 100 is complete control) (rice (Oryza sativa)): 0; Plant response rating, Sedge, Umbrella (0 to 100 scale, 0 is no effect, 100 is complete control) [16]: 0; Plant response rating, Ducksalad (0 to 100 scale, 0 is no effect, 100 is complete control) [17]: 0; Plant response rating, Barnyardgrass (0 to 100 scale, 0 is no effect, 100 is complete control) [18]: 0 |
| C[C@H](Nc1ncc(C(F)(F)F)c(N)n1)c1cc2c(F)cccc2o1 [Compound 74] | 0 | 0 | 0 | 0 | 0 | 40 | 0 | 0 | 0 | 0 | 0 | 10 | 0 | 20 | 20 | 0 | 0 | 60 | 0 | 0 | Plant response rating, Barnyardgrass ([7]; 500 g ai/ha): 0; Plant response rating, Kochia (kochia (Kochia scoparia) [8]; 500 g ai/ha): 60; Plant response rating, Ragweed ([9]; 500 g ai/ha): 30; Plant response rating, Ryegrass, Italian ([10]; 500 g ai/ha): 0; Plant response rating, Foxtail, Giant ([11]; 500 g ai/ha): 0; Plant response rating, Pigweed ([12]; 500 g ai/ha): 90; Plant response rating, Wheat ([13]; 500 g ai/ha): 0; Plant response rating, Corn (corn (Zea mays); 500 g ai/ha): 0; Plant response rating, Blackgrass ([14]; 125 g ai/ha): 0; Plant response rating, Blackgrass ([14]; 500 g ai/ha): 0; Plant response rating, Galium ([15]; 125 g ai/ha): 0; Plant response rating, Galium ([15]; 500 g ai/ha): 50; Plant response rating, Rice (0 to 100 scale, 0 is no effect, 100 is complete control) (rice (Oryza sativa)): 0; Plant response rating, Sedge, Umbrella (0 to 100 scale, 0 is no effect, 100 is complete control) [16]: 0; Plant response rating, Ducksalad (0 to 100 scale, 0 is no effect, 100 is complete control) [17]: 0; Plant response rating, Barnyardgrass (0 to 100 scale, 0 is no effect, 100 is complete control) [18]: 0 |
| Nc1nc(N[C@@H](c2cc3ccccc3s2)C2CC2)ncc1C(F)(F)F [Compound 84] | 90 | 90 | 90 | 90 | 100 | 100 | 70 | 90 | 90 | 100 | 100 | 100 | 70 | 80 | 40 | 0 | 50 | 100 | 0 | 0 | Plant response rating, Barnyardgrass ([7]; 500 g ai/ha): 100; Plant response rating, Kochia (kochia (Kochia scoparia) [8]; 500 g ai/ha): 90; Plant response rating, Ragweed ([9]; 500 g ai/ha): 90; Plant response rating, Ryegrass, Italian ([10]; 500 g ai/ha): 70; Plant response rating, Foxtail, Giant ([11]; 500 g ai/ha): 90; Plant response rating, Pigweed ([12]; 500 g ai/ha): 100; Plant response rating, Wheat ([13]; 500 g ai/ha): 0; Plant response rating, Corn (corn (Zea mays); 500 g ai/ha): 0; Plant response rating, Blackgrass ([14]; 125 g ai/ha): 0; Plant response rating, Blackgrass ([14]; 500 g ai/ha): 0; Plant response rating, Galium ([15]; 125 g ai/ha): 60; Plant response rating, Galium ([15]; 500 g ai/ha): 80; Plant response rating, Rice (0 to 100 scale, 0 is no effect, 100 is complete control) (rice (Oryza sativa)): 20; Plant response rating, Sedge, Umbrella (0 to 100 scale, 0 is no effect, 100 is complete control) [16]: 90; Plant response rating, Ducksalad (0 to 100 scale, 0 is no effect, 100 is complete control) [17]: 65; Plant response rating, Barnyardgrass (0 to 100 scale, 0 is no effect, 100 is complete control) [18]: 85 |
